Assay results published in the Kinase Knowledgebase extract (Sharma et al. 2016).

Tests used:
[1] = target: CDK2 (UniProt P24941); test: Enzyme Assay
[2] = target: CDK2 (UniProt P24941); test: Enzyme Assay; remark: listed apart in the source

SMILES	IC50 [1]	IC50 [2]
CCC(C)[C@@H]1NC(=O)c2c1c1c3ccccc3n3c1c1c2c2ccccc2n1[C@H]1C[C@](O)(C(=O)OC)[C@]3(C)O1 (stereo partly drawn)	5.8 µM	> 3.7 µM
COC(=O)[C@@]1(O)C[C@H]2O[C@]1(C)n1c3ccccc3c3c4c(c5c6ccccc6n2c5c31)C(=O)N[C@H]4Cc1ccccc1	1 µM	0.15 µM
CC(C)(C)n1nc(-c2cccc3ccccc23)c2c(N)ncnc21	18 µM	0.015 µM
COC(=O)[C@@]1(O)C[C@H]2O[C@]1(C)n1c3ccccc3c3c4c(c5c6ccccc6n2c5c31)C(=O)N[C@@H]4Cc1ccccc1	10 µM	10 µM
COC(=O)[C@@]1(O)C[C@H]2O[C@]1(C)n1c3ccccc3c3c4c(c5c6ccccc6n2c5c31)C(=O)N[C@H]4CCc1ccccc1	3.7 µM	–
COC(=O)[C@@]1(O)C[C@H]2O[C@]1(C)n1c3ccccc3c3c4c(c5c6ccccc6n2c5c31)C(=O)N[C@H]4C(C)C	29 µM	1.9 µM
COC(=O)[C@@]1(O)C[C@H]2O[C@]1(C)n1c3ccccc3c3c4c(c5c6ccccc6n2c5c31)C(=O)N[C@H]4CC(C)C	22 µM	0.07 µM
